Like-named read-outs stand apart in the source and are kept apart here.
Experiments:
[1] = tested on: Salmonella typhimurium TA100; conditions: for Revertants per well TA100, Mean: * positive increase
Experimental: (§1) The tester strains used in the mutagenicity assay were Salmonella typhimurium tester strains TA98 (for detecting frame-shift reverse mutation) and TA100 (for detecting point reverse mutation). The assay was conducted in both the presence and absence of S9 mixture along with concurrent vehicle (DMSO, 20 μl/well) and positive controls in duplicate using 6-well plates. […] A reproducible two-fold increase (>2× of vehicle control) of revertant colonies over the daily average control value is considered a positive response of gene mutation for each strain.
(§2) 2-nitrofluorene and sodium azide served as the positive controls in the absence of S9 for TA98 and TA100 respectively. 2-Aminoanthracene served as the positive controls in the presence of S9 for TA98 and TA100.

[2] = tested on: Salmonella typhimurium TA98; assay: Mini-Salmonella/mammalian-microsome reverse mutation assay TA98; conditions: for Revertants per well TA98, Mean: * positive increase
Experimental: as §1, §2

Raf, MEK, and ERK = assay: Western blot of RAF-MEK-ERK pathway in H460, A375, BT-474 and H1975 cells; assay type: cell-based; conditions: 100 nM, 16 hours
Experimental: Cell extracts were prepared in the presence of SDS and 2-mercaptoethanol and resolved in polyacrylamide gels. Proteins were transferred to nitrocellulose filter and blotting was done using standard procedures with blocking solutions (Li-Cor Bioscience) containing the indicated primary antibody. Primary antibodies against p-EGFR, EGFR, p-HER2, HER2, p-HER3, HER3, p-MET, MET, p-bRaf, p-cRaf, pMEK, MEK, p-ERK, ERK and tubulin were purchased from Cell Signaling Technology. Secondary antibody conjugated with IRdye 680, 800CW were used and the signal was detected with Li-Cor Odyssey Imager.
One major limitation of PI3K inhibitors in the treatment of cancers is the activation of the RAF-MEK-ERK pathway. HDAC inhibitors are able to inhibit kinase levels in this signaling pathway in cancer cells via epigenetic modification.

[3] = −S9, positive control 2.0 μg/well
[4] = −S9, positive control 0.4 μg/well
[5] = +S9, positive control 0.8 μg/well

For `[N-]=[N+]=[N-]` [Sodium azide, reference compound], the “Background Lawn TA100” value [1, 3] was 4/4, the “Revertants per well TA100, well 1” value [1, 3] was >300 and the “Revertants per well TA100, well 2” value [1, 3] was >300. The “Revertants per well TA100, Mean” value [1, 3] was >300*.

In the case of `O=[N+]([O-])c1ccc2c(c1)Cc1ccccc1-2` [2-nitrofluorene, reference compound], the “Background Lawn TA98” value [2, 4] is reported as 4/4, the “Revertants per well TA98, well 1” value [2, 4] is reported as 55 and the “Revertants per well TA98, well 2” value [2, 4] is reported as 63. For the same molecule, the “Revertants per well TA98, Mean” value [2, 4] was 59*.

With `Nc1ccc2cc3ccccc3cc2c1` [2-aminoanthracene, reference compound] the “Background Lawn TA100” value [1, 5] was 4/4, the “Revertants per well TA100, well 1” value [1, 5] was >300 and the “Revertants per well TA100, well 2” value [1, 5] was >300. For the same molecule, the “Revertants per well TA100, Mean” value [1, 5] was >300*, the “Background Lawn TA98” value [2, 5] was 4/4 and the “Revertants per well TA98, well 1” value [2, 5] was >300. For the same molecule, the “Revertants per well TA98, well 2” value [2, 5] was >300 and the “Revertants per well TA98, Mean” value [2, 5] was >300*.

`Cc1[nH]c2ccccc2c1CCNCc1ccc(/C=C/C(=O)NO)cc1` [LBH 589, reference compound] was tested, and the “Activation of Raf, MEK, and ERK” value (Raf, MEK, and ERK) was “showed similar activities in some of these Western blot assays”.
